27 molecules from PMC9246256, “Structure-based optimization of type III indoleamine 2,3-dioxygenase 1 (IDO1) inhibitors” (Journal of Enzyme Inhibition and Medicinal Chemistry, 2022) can be followed below.

Usually IC50 stands for the point on the concentration scale where inhibition reaches its midpoint. One may read the melting point as the temperature of the solid-liquid transition. Usually inhibition stands for the drop in the measured response relative to a control, in per cent. Low readings indicate little suppression, high ones strong suppression.

The target of data set [1] is T1, purified recombinant IDO1 (Homo sapiens, UniProt P14902).
T1 construct: Full-length human IDO1 gene was cloned into the pET-28a vector; inferred from pET-28a vector and HisTrap purification; made in house; host or cells: E. coli Rosetta (DE3)
Put plainly: Enzymatic IDO1 inhibition assay (ascorbate/methylene blue reduction system, HPLC detection of kynurenine). Format: biochemical. Conditions: for IC50: enzymatic, L-Trp 100 µM, 0.01% Triton X-100, 5% DMSO, 20 min at room temperature, pH 6.5, duplicates, read-out: IC50 [ μ M] (SD); for LE [kcal/mol/HA]: ligand efficiency, LE = -RT log(IC50)/number of heavy atoms, from enzymatic IC50.

Data set [2] concerns the target T2, hIDO1 (Homo sapiens, UniProt P14902).
T2 construct: The full ORF of hIDO1 was cloned into the mammalian expression vector pcDNA6/myc-His; myc-His (vector-encoded); host or cells: HEK 293 T
Briefly: Cellular hIDO1 inhibition (kynurenine production) in transiently transfected HEK 293 T cells. The class given is cell-based. As to the method:
(§1) We tested the cellular hIDO1 inhibitory activity and toxicity of 30 active compounds at a single concentration (Figure 6 and Table 8). As some of the aniline derivatives reacted with Ehrlich’s reagent (p-dimethylaminobenzaldehyde, p-DMAB) used to quantify kynurenine, the kynurenine content of these samples was determined by HPLC. To be able to detect also weak inhibition, compounds were tested at the high concentration of 200 µM (Figure 6A and B, filled bars), except for less soluble compounds (52, 148, 149 and 153), which were tested at a concentration of 50 µM (Figure 6A and B, empty bars).
The cDNA encoding hIDO1 (NCBI, NM 0021464.3) was purchased from Origene as pCMV6-Entry vector (RC206592). The full ORF of hIDO1 was cloned into the mammalian expression vector pcDNA6/myc-His from Invitrogen. Human embryonic kidney 293 T (HEK 293 T) cells were transiently transfected with the plasmid construct encoding hIDO1. A 75 cm^2 flask containing HEK 293 T cells at a confluency of 70% was transfected with jetPEI DNA transfection reagent (Polyplus-transfection), according to manufacturer’s protocol. A total of 20 µg of pcDNA-IDO1 along with 5 µg of pcDNA-GFP plasmid were used for the transfection; GFP was used to evaluate transfection efficiency prior to the cellular assays. 16–18 h post-transfection the 293 T cells were detached with trypsin, centrifuged, and re-suspended in 25 mL of DMEM medium without phenol red, supplemented with penicillin and streptomycin, 10% foetal bovine serum and 1 mM pyruvate (Gibco). Subsequently, 100 µL of cells were distributed to each well of two 96-well round-bottom plates that had been pre-loaded with 100 µL DMEM and the small organic test molecule in DMSO (for a final DMSO concentration of 2%). DMEM medium contains 78 µM L-Trp and was supplemented with 500 µM of L-Trp. Cells transfected with hIDO1 were incubated for 7 h at 37 °C in a CO2 incubator. The reaction was stopped in its linear phase by adding trichloroacetic acid (TCA) to the medium at a final concentration of 4%. Plates were centrifuged for 15 min at 4,000 rpm. 100 µL of supernatant was added to 100 µL of 2% (w/v) DMAB in glacial acetic acid. After 10 min the absorbance was measured at a wavelength of 480 nm to detect kynurenine formation. Alternatively, kynurenine content was determined by HPLC as done for the enzymatic assay.

The subject of data set [3] is HEK 293 T cells. Briefly: Cell viability / cellular toxicity (DAPI staining, cytometry). The class given is cell-based, human. Conditions: compound 200 µM, 7 h. As to the method:
as §1
Following DMSO (negative control) or inhibitor treatments, apoptotic cells were detected by 4′,6-diamidino-2-phenylindole (DAPI) staining. Briefly, after 7 h of incubation, cells were washed with PBS, resuspended in PBS with 1 µg/mL DAPI and immediately analysed using a BD LSR II cytometer. A 405 nm laser with 450/50 nm bandpass filter was used to collect data.

Values joined by “and” are separate entries in the source; they are usually repeats but may differ in a detail not shown here. Equal entries are not always repeated. Where only a bound is given, the exact number is not on record here.

T2 sequence (P14902 whole entry): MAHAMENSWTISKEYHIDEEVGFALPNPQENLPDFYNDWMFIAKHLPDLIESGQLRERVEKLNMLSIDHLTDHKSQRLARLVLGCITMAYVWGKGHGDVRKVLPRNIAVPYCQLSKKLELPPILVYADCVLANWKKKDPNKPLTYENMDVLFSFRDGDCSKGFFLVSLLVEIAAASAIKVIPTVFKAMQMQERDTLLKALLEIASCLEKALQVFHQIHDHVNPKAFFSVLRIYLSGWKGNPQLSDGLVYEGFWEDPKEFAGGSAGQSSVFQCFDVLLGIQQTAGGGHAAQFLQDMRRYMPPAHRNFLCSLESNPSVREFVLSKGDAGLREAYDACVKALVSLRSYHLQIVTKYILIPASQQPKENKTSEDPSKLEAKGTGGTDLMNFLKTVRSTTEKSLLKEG
T1 sequence (P14902 whole entry): as above

Take `c1ccc(CCOc2ccccc2-c2c[nH]nn2)cc1` [Compound 26, 4–(2-Phenethoxyphenyl)-1,2,3-triazole]: the melting point lay in the range of 91 to 93 °C. In addition, the 50% inhibitory concentration (IC50) in data set [1] is over 100 µM.
For the molecule `OC(COc1ccccc1-c1cnn[nH]1)c1ccccc1` (stereo not shown) [Compound 27, 2–(2-(1H-1,2,3-triazol-5-yl)phenoxy)-1-phenylethan-1-ol], the melting point lay within 153 to 155 °C. Further, the IC50 in data set [1] was over 500 µM.
For `c1ccc(CCNc2ccccc2-c2cnn[nH]2)cc1` [Compound 28], in that order: 129 to 132 °C and over 250 µM.
`Oc1ccc(F)cc1-c1cnn[nH]1` [Compound 34, 4-Fluoro-2-(1H-1,2,3-triazol-5-yl)phenol] returned a melting point of 186 to 188 °C. Moreover, in data set [1], the IC50 came to 0.14 µM and the “LE [kcal/mol/HA]” value was determined as 0.72 kcal/mol/HA.
On the same counts, the results for `Cc1ccc(O)c(-c2cnn[nH]2)c1` [Compound 35, 4-Methyl-2-(1H-1,2,3-triazol-5-yl)phenol] are 160 to 162 °C, 0.55 µM and 0.66 kcal/mol/HA.
On the same counts, the results for `CCc1ccc(O)c(-c2cnn[nH]2)c1` [Compound 36, 4-Ethyl-2-(1H-1,2,3-triazol-5-yl)phenol] are 71 to 73 °C, 0.25 µM and 0.64 kcal/mol/HA.
In turn, `CCCc1ccc(O)c(-c2cnn[nH]2)c1` [Compound 37, 4-Propyl-2-(1H-1,2,3-triazol-5-yl)phenol] came in with a melting point of 138 to 140 °C. Further, in data set [1], the IC50 was found to be 0.75 µM and the “LE [kcal/mol/HA]” value was 0.56 kcal/mol/HA.
On the same counts, the results for `Oc1ccc(Cc2ccccc2)cc1-c1cnn[nH]1` [Compound 38, 4-Benzyl-2-(1H-1,2,3-triazol-5-yl)phenol] are 148 to 151 °C, 88 µM and 0.29 kcal/mol/HA.
On the same counts, the results for `Clc1cccc(-c2c[nH]nn2)c1OCCc1ccccc1` [Compound 43, 4–(3-Chloro-2-phenethoxyphenyl)-1,2,3-triazole] are 96 to 99 °C, 31 µM and 0.29 kcal/mol/HA.
Molecule `Oc1cccc(O)c1-c1cnn[nH]1` [Compound 44, 2-(1H-1,2,3-triazol-5-yl)benzene-1,3-diol] showed a melting point of 257 to 259 °C. Moreover, in data set [1], the IC50 was found to be 13 µM and the “LE [kcal/mol/HA]” value was 0.51 kcal/mol/HA.
Regarding `Clc1cc(Cl)c(-c2c[nH]nn2)c(Cl)c1` [Compound 53, 4–(2,4,6-Trichlorophenyl)-1,2,3-triazole], the melting point is 236 to 238 °C. In data set [1], the IC50 was over 500 µM.
With `Cc1[nH]nnc1-c1cc(Cl)ccc1O` [Compound 68, 4-Chloro-2–(5-methyl-1,2,3-triazol-4-yl)phenol], the melting point lay within 149 to 151 °C. In addition, in data set [1], the concentration for half-maximal inhibition (IC50) was 220 µM and the “LE [kcal/mol/HA]” value was determined as 0.36 kcal/mol/HA.
Molecule `O=C(c1cnn[nH]1)c1cc(Cl)ccc1O` [Compound 111, (5-Chloro-2-hydroxyphenyl)(1H-1,2,3-triazol-5-yl)methanone] yielded a melting point of 186 to 188 °C. Besides, in data set [1], the 50% inhibitory concentration (IC50) is 365 µM and 370 µM; the “LE [kcal/mol/HA]” value stood at 0.31 kcal/mol/HA. The same molecule registered an inhibition at 200 µM in data set [2] of 20%. Also, the “Tox. [%]” value in data set [3] is 0 (0) %.
Molecule `O=C(c1cnn[nH]1)c1ccc(Br)cc1O` [Compound 113, (4-Bromo-2-hydroxyphenyl)(1H-1,2,3-triazol-5-yl)methanone] had a melting point of 192 to 194 °C. In data set [1], the IC50 worked out at 8.2 µM and the “LE [kcal/mol/HA]” value stood at 0.46 kcal/mol/HA. The same molecule displayed an inhibition at 200 µM in data set [2] of 36%. In addition, the “Tox. [%]” value in data set [3] is listed as 0 (0) %.
`O=C(c1cnn[nH]1)c1ccco1` [Compound 114, Furan-2-yl(1H-1,2,3-triazol-5-yl)methanone]: in data set [1], the IC50 was found to be 230 µM and the “LE [kcal/mol/HA]” value is recorded as 0.41 kcal/mol/HA. This molecule gave an inhibition at 200 µM in data set [2] of 20%. For the same molecule, the “Tox. [%]” value in data set [3] is recorded as 0 (0) %.
`O=C(c1ccoc1)c1cnn[nH]1` [Compound 115, Furan-3-yl(1H-1,2,3-triazol-5-yl)methanone]: in data set [1], the half-inhibitory concentration (IC50) was determined as 16 µM and the “LE [kcal/mol/HA]” value is reported as 0.55 kcal/mol/HA. The molecule further returned an inhibition at 200 µM in data set [2] of 73%. In data set [3], the “Tox. [%]” value is 0 (0) %.
On the same counts, the results for `O=C(c1cnn[nH]1)c1cccs1` [Compound 116, Thiophen-2-yl(1H-1,2,3-triazol-5-yl)methanone] are 17 µM, 0.54 kcal/mol/HA, 62% and 0 (0) %.
As for `O=C(c1ccsc1)c1cnn[nH]1` [Compound 117, Thiophen-3-yl(1H-1,2,3-triazol-5-yl)methanone], in data set [1], the IC50 was 67 µM and 68 µM; the “LE [kcal/mol/HA]” value is given as 0.47 kcal/mol/HA. In data set [2], this molecule registered an inhibition at 200 µM of 23%. Also, the “Tox. [%]” value in data set [3] is given as 0 (0) %.
With `O=C(c1cscn1)c1cnn[nH]1` [Compound 118, Thiazol-4-yl(1H-1,2,3-triazol-5-yl)methanone], in data set [1], the IC50 was 81 µM and 82 µM; the “LE [kcal/mol/HA]” value was found to be 0.46 kcal/mol/HA. In addition, the inhibition at 200 µM in data set [2] turned out to be 17%. Moreover, the “Tox. [%]” value in data set [3] was 0 (0) %.
For `O=C(c1ccccn1)c1cnn[nH]1` [Compound 120, Pyridin-2-yl(1H-1,2,3-triazol-5-yl)methanone], the melting point fell in the range of 161 to 163 °C. Further, in data set [1], the IC50 is over 1000 µM.
`O=C(c1cccnc1)c1cnn[nH]1` [Compound 121, Pyridin-3-yl(1H-1,2,3-triazol-5-yl)methanone]: in data set [1], the half-maximal inhibitory concentration (IC50) amounted to 650 µM and the “LE [kcal/mol/HA]” value is on record as 0.33 kcal/mol/HA. This molecule also registered an inhibition at 200 µM in data set [2] of 3.9%. For the same molecule, the “Tox. [%]” value in data set [3] was 0 (0) %.
`O=C(c1ccncc1)c1cnn[nH]1` [Compound 122, Pyridin-4-yl(1H-1,2,3-triazol-5-yl)methanone] had a melting point of 221 to 223 °C. In addition, in data set [1], the half-inhibitory concentration (IC50) is 1200 µM.
Consider `Nc1c(Cl)cccc1-c1nc[nH]n1` [Compound 141, 2-Chloro-6-(1H-1,2,4-triazol-3-yl)aniline], for which, in data set [1], the half-inhibitory concentration (IC50) is 29 µM and the “LE [kcal/mol/HA]” value was 0.48 kcal/mol/HA. The molecule also displayed an inhibition at 200 µM in data set [2] of 82%. Moreover, the “Tox. [%]” value in data set [3] is given as 13 (4) %.
For `Nc1cccc(N)c1-c1nc[nH]n1` [Compound 142, 2-(1H-1,2,4-triazol-3-yl)benzene-1,3-diamine], in data set [1], the IC50 turned out to be 31 µM and the “LE [kcal/mol/HA]” value is given as 0.47 kcal/mol/HA. The same molecule had an inhibition at 200 µM in data set [2] of 56%. Also, in data set [3], the “Tox. [%]” value is given as 11 (0.4) %.
In the case of `CC(=O)Nc1ccc(Cl)cc1-c1nc[nH]n1` [Compound 146, N-(4-Chloro-2-(1H-1,2,4-triazol-3-yl)phenyl)acetamide], in data set [1], the IC50 is 425 µM and 420 µM; the “LE [kcal/mol/HA]” value is reported as 0.29 kcal/mol/HA. The molecule also gave an inhibition at 200 µM in data set [2] of 89%. The “Tox. [%]” value in data set [3] is recorded as 0 (0) %.
`Cc1c(Cl)ccc(N)c1-c1nc[nH]n1` [Compound 156, 4-Chloro-3-methyl-2-(1H-1,2,4-triazol-3-yl)aniline] came in with a melting point of 208 to 210 °C. Besides, in data set [1], the IC50 was 90 µM and the “LE [kcal/mol/HA]” value is 0.39 kcal/mol/HA.
On the same counts, the results for `Nc1ccc(Cl)c(N)c1-c1nc[nH]n1` [Compound 157, 4-Chloro-2-(1H-1,2,4-triazol-3-yl)benzene-1,3-diamine] are 212 to 214 °C, 1 µM and 0.55 kcal/mol/HA.
